Measurements as given in PubChem BioAssay AID1985 (Southern Research Specialized Biocontainment Screening …, 2009).

Tested on: S. Typhi PhoP-promoter GFP reporter, fluorescence, 4 h
Test: PhoP regulon inhibitor project modified counter assay, GFP fluorescence readout, dose response (AID 1985)

Going from `COc1nsnc1NS(=O)(=O)c1ccc(NC(=S)NC(=O)c2cccnc2)cc1` to `Cc1cc(NS(=O)(=O)c2ccc(NC(=O)Nc3cccc(Cl)c3)cc2)no1`, the IC50 rises from 23.6 µM to 137 µM (5.8-fold). The first is the more potent here.

Compared with `O=C1C(SCCO)=C(SCCO)C(=O)c2ccccc21`, `CC(=O)OC1=C(O)C(=O)c2ccccc2C1=O` is 1.6-fold lower in IC50: 122 µM for the first, 78.6 µM for the second. The second is the more potent here.

`CCn1nnc(NC(=O)c2ccc([N+](=O)[O-])o2)n1` and `Cc1ccc(NC(=O)c2ccc([N+](=O)[O-])o2)c(C)c1` are within 1.5-fold of each other in IC50: 28.4 µM for the first, 38.9 µM for the second.

`C#CCOCCOCCOCCNc1nc(N2CCN(C(=O)CCCCCCCCCCNC(=O)[C@H](CCCCN)n3cc(CCO)nn3)CC2)nc(N2CCN(C(=O)CCCCCCCCCCNC(=O)[C@H](CCCN=C(N)N)n3cc(C[C@@H](C)CC)nn3)CC2)n1` and `C#CCOCCOCCOCCNc1nc(N2CCN(C(=O)[C@H](CCCCN)n3cc([C@@H](N)CC(C)C)nn3)CC2)nc(N2CCN(C(=O)[C@H](Cc3cc4ccccc4[nH]3)n3cc([C@@H](N)Cc4ccc(O)cc4)nn3)CC2)n1` are within 1.5-fold of each other in IC50: 56.8 µM for the first, 54.5 µM for the second.

Compared with `O=C(Nc1nc(-c2ccccn2)cs1)c1ccc(Br)s1`, `O=C(NC1CCCC1)c1ccc(Br)s1` is 1.7-fold higher in IC50: 20.1 µM for the first, 34 µM for the second. The first is the more potent here.

`Cc1cc(O)c2c(c1)C(=O)C13C(=C2O)C(=O)[C@H]2[C@@H](O)[C@@H]1[C@H]1[C@H](O)[C@@H]3C(=O)C3=C(O)c4c(O)cc(C)cc4C(=O)C312` (some centres not stated) and `CC1CC(=O)c2c(cc3c(-c4c(O)cc(O)c5c(O)c6c(cc45)OC(C)CC6=O)c(O)cc(O)c3c2O)O1` (configuration not stated) are within 1.5-fold of each other in IC50: 19.1 µM for the first, 27 µM for the second.

Going from `O=C(CSc1nc2ccccc2[nH]1)Nc1ccc(F)c(F)c1` to `O=C(CSC1=NC(=O)C(c2ccccc2)C(=O)N1)Nc1cccc(Cl)c1` (configuration not stated), the IC50 falls from 46.9 µM to 20.6 µM (2.3-fold).

Compared with `CN(C)c1ccc(O)c2c1CC1CC3[C@@H](N(C)C)C(=O)C(C(N)=O)=C(O)[C@]3(O)C(=O)C1=C2O` (some centres not stated), `C[C@H]1c2cccc(O)c2C(O)=C2C(=O)[C@]3(O)C(O)=C(C(N)=O)C(=O)[C@@H](N(C)C)[C@@H]3[C@@H](O)[C@@H]21` is 2.6-fold lower in IC50: 5.1 µM for the first, 1.97 µM for the second.

Compared with `Cc1cc([N+](=O)[O-])cc(/C=N/n2c(C)nc3ccccc3c2=O)c1O`, `COc1cc(/C=C2/C(=O)NN(c3ccc(F)cc3)C2=O)cc([N+](=O)[O-])c1O` is 1.5-fold lower in IC50: 53.6 µM for the first, 34.7 µM for the second. The second is the more potent here.

Going from `CC(=O)Oc1ccccc1C(=O)Nc1ncc([N+](=O)[O-])s1` to `COc1ccc(NC(=O)c2cc(Br)c(Br)s2)cn1`, the IC50 falls from 149 µM to 23.3 µM (6.4-fold). The second is the more potent here.

Going from `O=C(Nc1c2ccccc2nc2ccccc12)C(Cl)(Cl)Cl` to `O=c1c2ccccc2[nH]c2ccccc12`, the IC50 falls from 43.8 µM to 27.2 µM (1.6-fold).

Going from `Oc1cc(Cl)ccc1Oc1ccc(Cl)cc1Cl` to `O=C(Cn1cc[n+](CC(=O)c2ccc(Cl)cc2Cl)c1)c1ccc(Cl)cc1Cl`, the IC50 rises from 0.369 µM to 37.2 µM (100-fold).

`Clc1cc(Br)ccc1OCCCNCc1ccccc1` and `Fc1ccccc1CCNCc1ccccc1` are within 1.5-fold of each other in IC50: 45.5 µM for the first, 45.7 µM for the second.

`O=c1cc(-c2ccc(O)cc2)oc2c(O)c(O)c(O)c(O)c12` and `COc1ccc(Nc2cc(C)c3c(O)cccc3n2)cc1` are within 1.5-fold of each other in IC50: 40.2 µM for the first, 34.4 µM for the second.

Compared with `Nc1nc(=S)c2[nH]cnc2[nH]1`, `CC1(C)N=C(N)NC(Nc2ccc(Br)cc2)=N1` is 12-fold higher in IC50: 6.3 µM for the first, 76.4 µM for the second.

Compared with `C=CC1=C(C(=O)O)N2C(=O)[C@@H](NC(=O)/C(=N\O)c3csc(N)n3)[C@H]2SC1` (stereo in doubt), `Cc1ccc(-c2csc(N=C(N)N)n2)c(C)c1` is 1.9-fold higher in IC50: 34.6 µM for the first, 64.8 µM for the second. The first is the more potent here.

`COc1ccc(/C=N/Nc2cc(C)nc3ccc(Br)cc23)cc1` and `COc1ccc(C(=O)NC(=S)NNC(=O)c2cccc(C)c2)cc1` are within 1.5-fold of each other in IC50: 46.2 µM for the first, 46.8 µM for the second.

`O=C(c1cnn(C(=O)COc2ccccc2F)c1)c1cc(F)ccc1O` and `O=C(N/N=C/c1c(O)ccc2ccccc12)c1ccc(CO)nc1` are within 1.5-fold of each other in IC50: 83.3 µM for the first, 80.1 µM for the second.

First: O=Nc1c(O)c2ccccc2c2ccccc12
Second: Nc1nc(Nc2cccc(F)c2)nc2ccccc12
The IC50 of the first is 2.2-fold lower: 24.6 µM for the first, 54 µM for the second.

Going from `CC1(CC(=O)N/N=C/c2cc([N+](=O)[O-])c(O)cc2O)OCCO1` to `CCC(O)(CC)C(=O)N/N=C/c1cc(Br)cc(Br)c1O`, the IC50 rises from 38.4 µM to 60.9 µM (1.6-fold). The first is the more potent here.

`COc1cccc(C=NCC(C)N=Cc2cccc(OC)c2O)c1O` (configuration not stated) and `COc1cccc(/C=N/NC(=O)c2ccoc2C)c1O` are within 1.5-fold of each other in IC50: 74.1 µM for the first, 88.1 µM for the second.

`CCCCCCCNC(=O)C1(CC2CC(c3cccc(Br)c3)=NO2)CCNCC1` (configuration not stated) and `CCCCCCCCNC(C)C(O)c1ccc(SC(C)C)cc1` (configuration not stated) are within 1.5-fold of each other in IC50: 46 µM for the first, 41.8 µM for the second.

First: CCN1CCc2c(C#N)c(NCc3ccccc3)nc(NCCO)c2C1
Second: Cc1c(Cl)cccc1Nc1nc(NCCO)c2ccccc2n1
The IC50 of the first is 3.7-fold higher: 140 µM for the first, 38.1 µM for the second. The second is the more potent here.

Compared with `CCCCCCCCCCOC(=O)Cn1c(COc2cccc(OC)c2)[n+](C)c2ccccc21`, `CCOC(=O)c1c(-c2ccccc2)oc2ccc(OCC(O)CNCCN(C)C)cc12` (configuration not stated) is 4.4-fold higher in IC50: 18.1 µM for the first, 80.2 µM for the second.

First: C#CCOCCOCCOCCNc1nc(N2CCN(C(=O)[C@H](Cc3ccc(O)cc3)n3cc([C@@H](N)CC(C)C)nn3)CC2)nc(N2CCN(C(=O)[C@H](Cc3ccc(O)cc3)n3cc([C@@H](N)CC(C)C)nn3)CC2)n1
Second: CCN(CC)CCNc1nc(-c2ccc(OC)cc2)c(-c2ccc(OC)cc2)s1
The IC50 of the first is higher: 112 µM for the first, under 0.23 µM for the second. The second is the more potent here.

Going from `CC(NCc1ccc(Cl)c(Cl)c1)C(O)c1ccccc1` (configuration not stated) to `FC(F)Oc1ccc(NC(=S)NCc2nc3ccccc3[nH]2)cc1`, the IC50 falls from 82.3 µM to 33.7 µM (2.4-fold).

`NC(=O)SCC(=O)Nc1ccc(Cl)cc1` and `Cn1c(SCC(=O)N/N=C/c2ccc([N+](=O)[O-])s2)nnc1-c1ccc(Cl)cc1` are within 1.5-fold of each other in IC50: 45.1 µM for the first, 38.9 µM for the second.

Going from `CCCCCC(=O)NNC(=S)NC(C)=O` to `COc1ccc(C(=O)NC(=S)NNC(=O)c2cnccn2)cc1`, the IC50 rises from 22.9 µM to 80.5 µM (3.5-fold).

`N=c1c2c(n(Cc3ccc(Cl)cc3Cl)c3c1CCC3)CCCC2` and `CN1CCN(C2=Cc3ccccc3Sc3cc(F)c(Cl)cc32)CC1` are within 1.5-fold of each other in IC50: 80.7 µM for the first, 106 µM for the second.

`CC(C)C1N=C(c2ccc3c(c2)OCO3)CC(c2ccccc2O)N1` (configuration not stated) and `OC1(c2ccc(Cl)cc2)CCN(Cc2c[nH]c3ccccc23)CC1` are within 1.5-fold of each other in IC50: 121 µM for the first, 101 µM for the second.

Compared with `CCc1ccc(NC(=O)Nc2ccncc2)cc1`, `O=C(Cc1ccc([N+](=O)[O-])cc1)N/N=C/c1ccc([N+](=O)[O-])o1` is 4-fold lower in IC50: 51.8 µM for the first, 13.1 µM for the second. The second is the more potent here.

First: Cc1cc(/C=C\c2ccc3cc(N(C)C)ccc3[n+]2C)c(C)n1-c1ccccc1
Second: CCOC(=O)c1c(-c2ccc(-c3ccccc3)cc2)csc1NC(=O)CNCCN(C)C
The IC50 of the first is 2.6-fold lower: 32 µM for the first, 82.2 µM for the second.

First: COC(=O)C1=C(C)N(Cc2ccccc2)C(=NCc2cccc(C(F)(F)F)c2)N[C@H]1c1cccc(F)c1
Second: c1ccc(Nc2nc(NCC3CCCO3)c3ccccc3n2)cc1 (configuration not stated)
The IC50 of the first is 5.1-fold higher: 86.1 µM for the first, 16.8 µM for the second.

`CCC(C)(C)c1ccc(OCCCC[n+]2ccccc2)c(C(C)(C)CC)c1` and `CCC(/C=C1\Sc2ccc(OC)cc2N1CCO)=C\c1sc2ccc(OC)cc2[n+]1CCO` are within 1.5-fold of each other in IC50: 67.9 µM for the first, 95 µM for the second.

First: O=Cc1c(Cl)nc2ccccn2c1=O
Second: CC(C(=O)NC1CCS(=O)(=O)C1)N1C(=O)/C(=C/c2ccc(Cl)cc2)SC1=S (configuration not stated)
The IC50 of the first is 7.2-fold higher: 132 µM for the first, 18.3 µM for the second.

`O=C(N/N=C/c1ccccc1O)C1SCCCS1` and `N#Cc1nc(Cc2cccc3ccccc23)oc1NCCCN1CCOCC1` are within 1.5-fold of each other in IC50: 82.7 µM for the first, 62 µM for the second.

Compared with `COc1cccc(F)c1C(C[N+](=O)[O-])c1c(N)n(C)c(=O)n(C)c1=O` (configuration not stated), `CNC(=S)N1CCN(c2c(F)cc3c(=O)c(C(=O)O)cn(C4CC4)c3c2OC)CC1C` (configuration not stated) is 17-fold lower in IC50: 142 µM for the first, 8.49 µM for the second. The second is the more potent here.

Compared with `CCCCCCCCCCCCCCCC[N+](C)(C)C`, `Cc1ccc(Nc2cc(C)nn2-c2nc(C)cc(=O)[nH]2)cc1` is 1.9-fold lower in IC50: 19.3 µM for the first, 10.2 µM for the second. The second is the more potent here.

`CN(C)[C@@H]1C(=O)C(C(N)=O)=C(O)[C@@]2(O)C(=O)C3=C(O)c4c(O)cccc4[C@@](C)(O)C3[C@H](O)C12` (some centres not stated) showed an IC50 of 2.99 µM.
